Measured values as given in patent publication US6956037B2, “Benzamide derivatives for the treatment of diseases mediated by cytokines” (AstraZeneca AB, priority 1998, dated 2005).

How the values were obtained:
p38α = target: T1, p38α (Homo sapiens, UniProt Q16539); assay: In vitro enzyme assay, p38 kinase inhibition; format: biochemical; conditions: read-out: IC50 against p38α
T1 construct: c-myc (N); 6His (N); made in house; host or cells: E. coli (PET vectors)
Protocol: The ability of compounds of the invention to inhibit the enzyme p38 kinase was assessed. Activity of test compounds against each of the p38α and p38β isoforms of the enzyme was determined. […]
Test compounds were solubilised in DMSO and 10 μl of a 1:10 diluted sample in ‘Kinase Buffer’ was added to a well in a Microtiter plate. […] The precipitated protein was phosphorylated by p38 kinase and test compounds were assessed for their ability to inhibit this phosphorylation. The plates were filtered using a Canberra Packard Unifilter and washed with 2% TCA, dried overnight and counted on a Top Count scintillation counter.
Test compounds were tested initially at a single dose and active compounds were retested to allow IC50 values to be determined.

[1] = tested on: TNFα production by human peripheral blood mononuclear cells; assay: PBMC test: inhibition of LPS-stimulated TNFα production; format: cell-based
Protocol: The ability of compounds of this invention to inhibit TNFα production was assessed by using human peripheral blood mononuclear cells which synthesise and secrete TNFα when stimulated with lipopolysaccharide.
Peripheral blood mononuclear cells (PBMC) were isolated from heparinised (10 units/ml heparin) human blood by density centrifugation (Lymphoprep™; Nycomed). Mononuclear cells were resuspended in culture medium [RPMI 1640 medium (Gibco) supplemented with 50 units/ml penicillin, 50 μg/ml streptomycin, 2 mM glutamine and 1% heat-inactivated human AB serum (Sigma H-1513)]. Compounds were solubilised in DMSO at a concentration of 50 mM, diluted 1:100 in culture medium and subsequently serial dilutions were made in culture medium containing 1% DMSO. PBMCs (2.4×10^5 cells in 160 μl culture medium) were incubated with 20 μl of varying concentrations of test compound (triplicate cultures) or 20 μl culture medium containing 1% DMSO (control wells) for 30 minutes at 37° C. in a humidified (5% CO2/95% air) incubator (Falcon 3072; 96 well flat-bottom tissue culture plates). […] TNFα levels were determined in each sample using a human TNFα ELISA (see WO92/10190 and Current Protocols in Molecular Biology, vol 2 by Frederick M/Ausbel et al., John Wiley and Sons Inc.). […]

[2] = tested on: TNFα production by human whole blood; assay: Human Whole Blood test: inhibition of LPS-stimulated TNFα production; format: cell-based
Protocol: The ability of the compounds of this invention to inhibit TNFα production was also assessed in a human whole blood assay. Human whole blood secretes TNFα when stimulated with LPS. This property of blood forms the basis of an assay which is used as a secondary test for compounds which profile as active in the PBMC test.
Heparinised (10 units/ml) human blood was obtained from volunteers. 160 μl whole blood were added to 96 well round-bottom plates (Corning 25850). Compounds were solubilised and serially diluted in RPMI 1640 medium (Gibco) supplemented with 50 units/ml penicillin 50 μg/ml streptomycin and 2 mM glutamine, as detailed above. 20 μl of each test concentration was added to appropriate wells (triplicate cultures). 20 μl of RPMI 1640 medium supplemented with antibiotics and glutamine was added to control wells. Plates were incubated for 30 minutes at 37° C. (humidified incubator), prior to addition of 20 μl LPS (final concentration 10 μg/ml). RPMI 1640 medium was added to control wells. Six “LPS alone” and four “medium alone” controls were included on each plate. A known TNFα synthesis/secretion inhibitor was included in each test. Plates were incubated for 6 hours at 37° C. (humidified incubator). […] TNFα levels were measured by ELISA (see WO92/10190 and Current Protocols in Molecular Biology, vol 2 by Frederick M. Ausbel et al., John Wiley and Sons Inc.). […]

T1 sequence (Q16539 whole entry): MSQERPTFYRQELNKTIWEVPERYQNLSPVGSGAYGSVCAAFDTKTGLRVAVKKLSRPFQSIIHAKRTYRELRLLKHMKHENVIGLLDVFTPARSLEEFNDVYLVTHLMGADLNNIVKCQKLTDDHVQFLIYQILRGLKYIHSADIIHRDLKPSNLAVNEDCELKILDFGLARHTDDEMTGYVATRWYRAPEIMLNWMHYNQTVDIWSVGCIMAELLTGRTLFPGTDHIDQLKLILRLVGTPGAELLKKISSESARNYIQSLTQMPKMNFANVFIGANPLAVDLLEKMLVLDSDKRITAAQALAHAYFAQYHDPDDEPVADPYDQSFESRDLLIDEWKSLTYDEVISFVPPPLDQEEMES

Compound | melting point | other results
COc1ccc(C(=O)Nc2cc(NC(=O)c3cccc(NS(C)(=O)=O)c3)ccc2C)cc1OC [Example 1, N-[5-(3-methanesulphonylaminobenzamido)-2-methylphenyl]-3,4-dimethoxybenzamide] | > 300 °C | 
Cc1ccc(NC(=O)c2cccc(N3CCOCC3)c2)cc1NC(=O)c1cccc(OCCN2CCCC2)c1 [Example 7, Compound No. 19, N-[2-methyl-5-(3-morpholinobenzamido)phenyl]-3-(2-pyrrolidin-1-ylethoxy)benzamide] |  | IC50 (p38α): ~100 nM; IC50 [1]: ~1000 nM; IC50 [2]: ~6000 nM
COCCOc1ccc(C(=O)Nc2cc(NC(=O)c3ccc(C#N)cc3)ccc2C)cc1 [Example 8, N-[5-(4-cyanobenzamido)-2-methylphenyl]-4-(2-methoxyethoxy)benzamide] |  | IC50 (p38α): ~100 nM; IC50 [1]: ~3000 nM
Cc1ccc(NC(=O)c2cccc(N3CCOCC3)c2)cc1NC(=O)c1cccc(OC2CCNCC2)c1 [Example 25, N-[2-methyl-5-(3-morpholinobenzamido)phenyl]-3-piperidin4-yloxybenzamide] | 162 to 166 °C | 
CCS(=O)(=O)Nc1cccc(C(=O)Nc2ccc(C)c(NC(=O)c3ccc(OC)c(OC)c3)c2)c1 [Example 26, N-{5-[3-(N-methylmethanesulphonylamino)benzamido]-2′-methylphenyl}-3,4-dimethoxybenzamide] | 168 to 169 °C | 
Cc1ccc(NC(=O)c2cccc(N(C)C)c2)cc1NC(=O)c1cccc(NS(C)(=O)=O)c1 [Example 27, N-[5-(3-dimethylaminobenzamido)-2-methylphenyl]-3-methanesulphonylaminobenzamide] | 239 to 240 °C | 
Cc1ccc(NC(=O)c2cccc(N(C)C)c2)cc1NC(=O)c1ccccc1NCCCN1CCOCC1 [Example 35, N-[5-(3-dimethylaminobenzamido)-2-methylphenyl]-2-(3-morpholinopropylamino)benzamide] | 239 to 240 °C | 
Cc1ccc(NC(=O)c2cccc(N(C)C)c2)cc1NC(=O)c1ccc(N(C)CCCN(C)C)cc1 [Example 36, N-[5-(3-dimethylaminobenzamido)-2-methylphenyl]-4-(3-dimethylamino-N-methylpropylamino)benzamide] | 178 to 179 °C | 
CCCS(=O)(=O)Nc1cccc(C(=O)Nc2cc(NC(=O)c3cccc(N4CCOCC4)c3)ccc2C)c1 [Example 62, N-[2-methyl-5-(3-morpholinobenzamido)phenyl]-3-(N-ethylmethanesulphonylamino)benzamide] | 192 to 193 °C | 

Continued, in another order:

melting point | Compound | other results
186 to 187 °C | COc1ccc(C(=O)Nc2cc(NC(=O)c3ccc(OCCCCl)cc3)ccc2C)cc1OC [Example 3, N-{5-[4-(3-chloropropoxy)benzamido]-2-methylphenyl}-3,4-dimethoxybenzamide] | 
165 to 166 °C | COc1ccc(C(=O)Nc2cc(NC(=O)c3ccc(OCCN4CCCC4)cc3)ccc2C)cc1OC [Example 4, N-{5-[4-(2-pyrrolidin-1-ylethoxy)benzamido]-2-methylphenyl}-3,4-dimethoxybenzamide] | 
148 to 149 °C | COc1ccc(C(=O)Nc2cc(NC(=O)c3ccc(OCCCN4CCOCC4)cc3)ccc2C)cc1OC [Example 5, Compound No. 3, N-{2-methyl-5-[4-(3-morpholinopropoxy)benzamido]phenyl}-3,4-dimethoxybenzamide] | 
206 to 207 °C | COc1ccc(C(=O)Nc2cc(NC(=O)c3cccc(OCC(=O)O)c3)ccc2C)cc1OC [Example 18, N-[5-(3-carboxymethoxybenzamido)-2-methylphenyl]-3,4-dimethoxybenzamide] | 
164 to 165 °C | COc1ccc(C(=O)Nc2cc(NC(=O)c3ccc(N(C)CCCN(C)C)cc3)ccc2C)cc1OC [Example 20, N-{5-[4-(N-(3-dimethylaminopropyl)-N-methylamino)benzamido]-2-methylphenyl}-3,4-dimethoxybenzamide] | 
